According to patent publication US20130123358A1, “Metabolic Benefits to Butyrate as a Chronic Diet Supplement” (priority 2009, published 2013):

Assays:
[1] = tested on: C57BL/6J mice on high fat diet; assay: Energy metabolism and body composition in diet-induced obesity, butyrate started with HFD; type: in vivo, mouse
Protocol: Male C57BL/6J (4 weeks in age) and ob/ob mice (4 weeks in age) were purchased from the Jackson Laboratory (Bar Harbor, Me.). After one week quarantine, the C57BL/6J mice were fed on the high fat diet (HFD, D12331, Research Diets, New Brunswick, N.J.), which contains 58% calories in fat. The ob/ob mice were fed on Chow diet (5001, Lab Diet) that contains 13.4% calories in fat. All of the mice were housed in the animal facility with a 12:12-h light-dark cycle and constant temperature (22-24° C.). The mice were free to access water and diet. All procedures were performed in accordance with National Institute of Health guidelines for the care and use of animals and approved by the Institute Animal Care and Use Committee at the Pennington Biomedical Research Center.
Sodium butyrate was administrated through dietary supplementation. Sodium butyrate (#303410, Sigma) was incorporated into the HFD evenly through blending the diet and sodium butyrate together at 400 rpm in a food processor. Sodium butyrate (50 g) was used in 1 kg diet to reach a dose of 5% w/w. The sodium butyrate containing diet was pelleted and stored in a −20° C. freezer. Trichostatin A (TSA) (T-1052, A.G. Scientific Inc. San Diego, Calif.) was dissolved in DMSO, and diluted in 0.9% saline at 2:98 ratio. The TSA solution (200 ul) was administrated by intra-peritoneal (i.p.) injection to reach a dose of […]. The control mice were administrated with the same volume of vehicle. 50 ml of tributyrin (#113026, Sigma) was incorporated into one kilogram of Chow diet in powder to reach a dose of 5% w/w in mice.
Body composition was measured using quantitative nuclear magnetic resonance (NMR) as previously described (15). In the test, a conscious and unrestrained mouse was placed in a small tube one at a time and individually tested using a Brucker model mq10 NMR analyzer (Brucker, Canada, Milton ON, Canada). The fat and lean mass were recorded within 1 min. Measurements were made in triplicate for each mouse.
Energy expenditure, respiratory exchange ratio (RER), spontaneous physical movement, and food intake were measured simultaneously for each mouse with the Comprehensive Laboratory Animal Monitoring System (Columbus Instruments, Columbus, Ohio) as described previously (15). The temperature in the metabolic chamber was 24° C. The mice were housed individually in the metabolic chamber. After 48 h of adaptation, the data were recorded for all parameters and used in analysis of the energy metabolism.
Butyrate was initially tested for prevention of dietary obesity. In the diet-induced obesity model, the butyrate supplementation started at the beginning of high fat diet (HFD) feeding. The plain HFD was used in the control group. Calorie intake was monitored four times in the first ten weeks. After normalization with body weight, the calorie intake was reduced with the increase in age.
Energy expenditure was examined in C57BL/6J mice using the metabolic chamber at the first week and the tenth week on HFD (16 weeks in age). In this study, sodium butyrate was used at 5% w/w in HFD. […] Food intake was monitored daily for 5 days at each time point. Average daily food intake (g) was converted into K calorie and normalized with body weight (kg) and 24 hours. […] FIG. 1E illustrates the body weight of the mice over 16 weeks. FIG. 1F illustrates the body fat content as determined by NMR expressed as a percentage of body weight. FIG. 1G illustrates the body muscle content expressed as a percentage of body weight. […] Feces were collected in the cages during a 24 hr period on HFD at 12 weeks, and the total lipids were extracted and quantified (P>0.05, n=5). […] The frequency of horizontal movement was shown for day and night time at 10 wks on HFD. For FIGS. 1A-1D and 1I, the number of mice was 8 in both the control or butyrate groups. For FIGS. 1E-1G, the number of mice was 10 in both the control or butyrate group. Values given in FIGS. 1A-1I are the mean±SE. *P<0.05, **P<0.001 by Student's t test. […]

[2] = tested on: C57BL/6J mice on high fat diet; assay: Blood lipids and TNF-a in HFD mice; type: in vivo, mouse
Protocol: The serum fatty acids including butyrate were examined using a protocol described elsewhere (18), and as described below in Example 10. The fatty acids in feces were determined using a protocol as described by Schwarz (19). Triglyceride and cholesterol were measured in the whole blood with the Cardiochek portable test system.
Levels of cholesterol, total triglyceride and inflammation cytokines (TNF-a) were elevated in the blood of dietary obese mice. With 5% SB supplementation, these risk factors for cardiovascular disease were all reduced in the mice (FIG. 10A-E). Blood samples were taken from control and butyrate-supplemented mice at 10 weeks on HFD. The cholesterol, HDL (high density lipoprotein), LDL (low density lipoprotein), and triglyceride were measured with cholesterol reagent kit (cat #. 80015, Rainchem, San Diego, Calif.), and the Cardiochek whole blood test system (Polymer Technology Systems, Inc. IN). Data are presented as means±SEM (n=6). **P<0.001 by Student's t test.

[3] = tested on: ruminant mammals; settings: intravenous use, including in the form of tributyrin; cited from earlier work
[4] = tested on: HDAC; assay: Histone Deacetylase Assay Kit, inhibition by butyrate isoforms; settings: Histone Deacetylase Assay Kit (Upstate), FIG. 8
Source text: Several isoforms of butyrate were purchased (Sigma Aldrich Chemicals, St. Louis, Mo.) and tested for inhibitory activity of HDAC, using a Histone Deacetylase Assay Kit (Upstate Biotechnology, Lake Placid, N.Y.).

[5] = butyrate 5% w/w in HFD vs control, metabolic chamber, weeks 1 and 10
[6] = butyrate 5% w/w in HFD, NMR, change during 16 weeks

## CCCC(=O)[O-].[Na+] [sodium butyrate]
[1]; butyrate 5% w/w in HFD
  toxicity (by food intake and physical activity): no toxicity was observed
[1]; butyrate 5% w/w in HFD vs HFD control, first ten weeks
  calorie intake: significantly higher at all of the time points
[1]; butyrate 5% w/w in HFD vs control
  body length (mouse growth): identical between the two groups
[1]; butyrate 5% w/w in HFD vs control, 10 wks on HFD, day and night
  spontaneous physical activity: not reduced
[1]; [5]
  energy expenditure: elevated at the night time
  oxygen consumption: elevated at the night time
[1]; butyrate 5% w/w in HFD vs control, weeks 1 and 10
  respiratory exchange ratio (RER): reduced during the day and night time
[1]; [6]
  fat content (adiposity): not significantly changed
  lean mass: not significantly changed
[1]; butyrate 5% w/w in HFD, change during 16 weeks
  body weight: not significantly changed
[1]; butyrate 5% w/w in HFD, without a reduction in food intake
  body fat content: 10%
[1]; mice on high fat diet with SB, sixteen weeks
  hepatic steatosis: reduced
[2]; 5% SB in HFD, 10 weeks, blood
  LDL, reduction vs control: 41%
  Triglyceride, reduction vs control: 40%
  total cholesterol, reduction vs control: 25%
[2]; 5% SB in HFD, 10 weeks, blood, Luminex
  TNF-a, reduction vs control: 70%
[2]; butyrate 5% w/w in HFD
  blood total fatty acids: decreased
[3]
  serum glucose and insulin: increase
[4]
  inhibitory activity of HDAC: inhibited HDAC
